Patent US20250304567A1, “PYRROLIDIONE DERIVATIVES AS INHIBITORS OF NF KAPPA B INDUCING KINASE” (priority 2022, published 2025)
Where two headings read alike, the source gives them in different places.

Experiments:
[1] = target: Recombinant Human NF-kappaB-Inducing Kinase (NIK/MAP3K14) (Homo sapiens, UniProt Q99558); assay: Inhibition of auto-phosphorylation of recombinant human NIK/MAP3K14 activity (AlphaScreen); type: biochemical; settings: 5 μM ATP, 1 nM NIK, average if tested more than once
Method in brief: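 AlphaScreen detection of phospho-Ser176/180 after 1 nM GST-NIK auto-phosphorylates for 2 h at 25 °C with 5 μM ATP (50 mM Tris pH 7.5, 0.7% DMSO). IC50s come from sigmoidal curves of % inhibition against log dose, using enzyme-free, ATP-free low controls and full-activity high controls.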

[2] = test system: p-IKKa levels in L363 (NIK translocated multiple myeloma) cells; assay: Effect of compounds on p-IKKa levels in L363 (NIK translocated multiple myeloma) cells (AlphaLISA SureFire Ultra p-IKKa Ser176/180); type: cell-based, human; settings: average if tested more than once, read-out: Assay 2 IC50
Method in brief: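 Phospho-IKKa (Ser176/180) in lysates quantified by AlphaLISA after 6 h compound exposure, 11-point threefold dilutions, 0.3% DMSO. L363 cells were pre-stimulated overnight and assayed with 250 ng/ml BAFF and 10 μM MG132; % inhibition fitted sigmoidally for IC50, duplicate curves.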

[3] = Homo sapiens, L-363, p-IKKa levels in L363 cells

Chain of Recombinant Human NF-kappaB-Inducing Kinase (NIK/MAP3K14) (Q99558 whole entry): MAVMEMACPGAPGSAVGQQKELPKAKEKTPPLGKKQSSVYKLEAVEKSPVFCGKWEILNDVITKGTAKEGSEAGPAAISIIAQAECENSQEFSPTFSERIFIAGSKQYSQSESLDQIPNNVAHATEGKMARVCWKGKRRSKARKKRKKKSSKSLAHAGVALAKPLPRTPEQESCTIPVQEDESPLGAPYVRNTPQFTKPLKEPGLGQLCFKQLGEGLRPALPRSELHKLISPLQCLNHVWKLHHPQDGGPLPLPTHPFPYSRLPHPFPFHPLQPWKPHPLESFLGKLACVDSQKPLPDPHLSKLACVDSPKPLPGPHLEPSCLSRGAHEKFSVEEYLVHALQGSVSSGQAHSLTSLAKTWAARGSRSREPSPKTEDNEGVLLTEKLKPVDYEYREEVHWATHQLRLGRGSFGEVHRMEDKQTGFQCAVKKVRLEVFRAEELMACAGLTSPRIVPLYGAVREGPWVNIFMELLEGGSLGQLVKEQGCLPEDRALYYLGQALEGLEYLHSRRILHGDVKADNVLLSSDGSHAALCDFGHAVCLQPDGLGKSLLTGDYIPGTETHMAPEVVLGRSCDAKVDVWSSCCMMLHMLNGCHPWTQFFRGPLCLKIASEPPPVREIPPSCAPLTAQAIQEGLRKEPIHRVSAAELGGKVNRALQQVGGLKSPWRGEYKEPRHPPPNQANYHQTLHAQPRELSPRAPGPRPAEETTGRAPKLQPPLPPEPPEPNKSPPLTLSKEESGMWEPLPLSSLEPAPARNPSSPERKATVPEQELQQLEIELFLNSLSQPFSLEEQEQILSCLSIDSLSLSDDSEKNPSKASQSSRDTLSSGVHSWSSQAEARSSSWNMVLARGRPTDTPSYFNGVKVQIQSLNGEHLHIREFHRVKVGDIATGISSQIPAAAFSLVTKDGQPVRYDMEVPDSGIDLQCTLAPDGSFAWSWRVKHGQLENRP

`CC(Nc1nccc(-c2csc(-c3cccc([C@]4(O)CCN(C)C4=O)c3)n2)n1)c1nc2ccccc2[nH]1` (stereo partly drawn) [Example 45, (R)-3-(3-(4-(2-(((R,S)-1-(1H-benzo[d]imidazol-2-yl)ethyl)amino)pyrimidin-4-yl)thiazol-2-yl)phenyl)-3-hydroxy-1-methylpyrrolidin-2-one] showed an IC50 [1] of less than 100 nM and an IC50 ([2]; p-IKKa levels in L363 cells) greater than 501 nM.
`CN1CC[C@@](O)(c2cccc(-c3nc(-c4ccnc(NC5CCN(S(C)(=O)=O)CC5)n4)cs3)c2)C1=O` [Example 47, (R)-3-Hydroxy-1-methyl-3-(3-(4-(2-((1-(methylsulfonyl)piperidin-4-yl)amino)pyrimidin-4-yl)thiazol-2-yl)phenyl)pyrrolidin-2-one] showed an IC50 [1] of less than 100 nM and an IC50 [2, 3] greater than 501 nM.
For `Cc1cccc(Nc2nccc(-c3csc(-c4cccc([C@]5(O)CCN(C)C5=O)c4)n3)n2)n1` [Example 48, (R)-3-hydroxy-1-methyl-3-(3-(4-(2-((6-methylpyridin-2-yl)amino)pyrimidin-4-yl)thiazol-2-yl)phenyl)pyrrolidin-2-one], the IC50 [1] was less than 100 nM and the IC50 [2, 3] was greater than 501 nM.
`Cc1cc(Nc2nccc(-c3csc(-c4cccc([C@]5(O)CCN(C)C5=O)c4)n3)n2)nn1C` [Example 49, (R)-3-(3-(4-(2-((1,5-Dimethyl-1H-pyrazol-3-yl)amino)pyrimidin-4-yl)thiazol-2-yl)phenyl)-3-hydroxy-1-methylpyrrolidin-2-one] gave an IC50 [1] of less than 100 nM and an IC50 [2, 3] of 100 to 500 nM.
`CN1CC[C@@](O)(c2cccc(-c3nc(-c4nc(Nc5ccn(C)n5)ncc4F)cs3)c2)C1=O` [Example 52, (R)-3-(3-(4-(5-Fluoro-2-((1-methyl-1H-pyrazol-3-yl)amino)pyrimidin-4-yl)thiazol-2-yl)phenyl)-3-hydroxy-1-methylpyrrolidin-2-one] gave an IC50 [1] of 100 to 500 nM and an IC50 [2, 3] greater than 501 nM.
`CN1CCn2nc(Nc3nccc(-c4csc(-c5cccc([C@]6(O)CCN(C)C6=O)c5)n4)n3)cc2C1=O` [Example 53, (R)-2-((4-(2-(3-(3-Hydroxy-1-methyl-2-oxopyrrolidin-3-yl)phenyl)thiazol-4-yl)pyrimidin-2-yl)amino)-5-methyl-6,7-dihydropyrazolo[1,5-a]pyrazin-4(5H)-one] was tested, and the IC50 [1] was less than 100 nM and the IC50 [2, 3] was 100 to 500 nM.
`CN1CC[C@@](O)(c2cccc(-c3nc(-c4ccnc(Nc5cnn6c5NCCC6)n4)cs3)c2)C1=O` [Example 54, (R)-3-hydroxy-1-methyl-3-(3-(4-(2-((4,5,6,7-tetrahydropyrazolo[1,5-a]pyrimidin-3-yl)amino)pyrimidin-4-yl)thiazol-2-yl)phenyl)pyrrolidin-2-one] gave an IC50 [1] of less than 100 nM and an IC50 [2, 3] of 100 to 500 nM.
In the case of `CN1CC[C@@](O)(c2cccc(-n3ccc(-c4ccnc(Nc5ccn(C)n5)n4)n3)c2)C1=O` [Example 55, (R)-3-hydroxy-1-methyl-3-(3-(3-(2-((1-methyl-1H-pyrazol-3-yl)amino)pyrimidin-4-yl)-1H-pyrazol-1-yl)phenyl)pyrrolidin-2-one], the IC50 [1] is reported as less than 100 nM and the IC50 [2, 3] is reported as 100 to 500 nM.
Compound `CN1CC[C@@](O)(c2cccc(-c3nc(-c4ccnc(Nc5ccn(C)n5)n4)cs3)c2)C1=O` [Example 56, (R)-3-hydroxy-1-methyl-3-(3-(4-(2-((1-methyl-1H-pyrazol-3-yl)amino)pyrimidin-4-yl)thiazol-2-yl)phenyl)pyrrolidin-2-one] has an IC50 [1] of less than 100 nM and an IC50 [2, 3] of 100 to 500 nM.
In the case of `CCn1ncc(C)c1Nc1nccc(-c2csc(-c3cccc([C@]4(O)CCN(C)C4=O)c3)n2)n1` [Example 64, (R)-3-(3-(4-(2-((1-ethyl-4-methyl-1H-pyrazol-5-yl)amino)pyrimidin-4-yl)thiazol-2-yl)phenyl)-3-hydroxy-1-methylpyrrolidin-2-one], the IC50 [1] is reported as greater than 501 nM and the IC50 [2, 3] is reported as greater than 501 nM.
`CN1CC[C@@](O)(c2cccc(-c3nc(-c4ccnc(Nc5ccnn5CC5CC5)n4)cs3)c2)C1=O` [Example 65, (R)-3-(3-(4-(2-((1-(cyclopropylmethyl)-1H-pyrazol-5-yl)amino)pyrimidin-4-yl)thiazol-2-yl)phenyl)-3-hydroxy-1-methylpyrrolidin-2-one] showed an IC50 [1] of 100 to 500 nM and an IC50 [2, 3] greater than 501 nM.
`CC(C)n1nccc1Nc1nccc(-c2csc(-c3cccc([C@]4(O)CCN(C)C4=O)c3)n2)n1` [Example 66, (R)-3-hydroxy-3-(3-(4-(2-((1-isopropyl-1H-pyrazol-5-yl)amino)pyrimidin-4-yl)thiazol-2-yl)phenyl)-1-methylpyrrolidin-2-one] was tested, and the IC50 [1] was 100 to 500 nM and the IC50 [2, 3] was greater than 501 nM.
`CCCn1ccc(Nc2nccc(-c3csc(-c4cccc([C@]5(O)CCN(C)C5=O)c4)n3)n2)n1` [Example 67, (R)-3-hydroxy-1-methyl-3-(3-(4-(2-((1-propyl-1H-pyrazol-3-yl)amino)pyrimidin-4-yl)thiazol-2-yl)phenyl)pyrrolidin-2-one] gave an IC50 [1] of less than 100 nM and an IC50 [2, 3] of 100 to 500 nM.
In the case of `CN1CC[C@@](O)(c2cccc(-c3nc(-c4ccnc(Nc5cccnc5)n4)cs3)c2)C1=O` [Example 68, (R)-3-hydroxy-1-methyl-3-(3-(4-(2-(pyridin-3-ylamino)pyrimidin-4-yl)thiazol-2-yl)phenyl)pyrrolidin-2-one], the IC50 [1] is reported as greater than 501 nM and the IC50 [2, 3] is reported as greater than 501 nM.
`CN1CC[C@@](O)(c2cccc(-c3nc(-c4ccnc(Nc5nn(C)c6ccccc56)n4)cs3)c2)C1=O` [Example 69, (R)-3-hydroxy-1-methyl-3-(3-(4-(2-((1-methyl-1H-indazol-3-yl)amino)pyrimidin-4-yl)thiazol-2-yl)phenyl)pyrrolidin-2-one] was tested, and the IC50 [1] was less than 100 nM and the IC50 [2, 3] was greater than 501 nM.
Work on `CCc1cc(Nc2nccc(-c3csc(-c4cccc([C@]5(O)CCN(C)C5=O)c4)n3)n2)ncn1` [Example 70, (R)-3-(3-(4-(2-((6-ethylpyrimidin-4-yl)amino)pyrimidin-4-yl)thiazol-2-yl)phenyl)-3-hydroxy-1-methylpyrrolidin-2-one] yielded an IC50 [1] of less than 100 nM and an IC50 [2, 3] greater than 501 nM.
Compound `CN1CC[C@@](O)(c2cccc(-c3nc(-c4ccnc(Nc5cc6c(nn5)CCC6)n4)cs3)c2)C1=O` [Example 71, (R)-3-(3-(4-(2-((6,7-dihydro-5H-cyclopenta[c]pyridazin-3-yl)amino)pyrimidin-4-yl)thiazol-2-yl)phenyl)-3-hydroxy-1-methylpyrrolidin-2-one] has an IC50 [1] of less than 100 nM and an IC50 [2, 3] greater than 501 nM.
Compound `CN1CC[C@@](O)(c2cccc(-c3nc(-c4ccnc(Nc5cnn(CC6CCCO6)c5)n4)cs3)c2)C1=O` (stereo partly drawn) [Example 72, (R)-3-hydroxy-1-methyl-3-(3-(4-(2-((1-(((R,S)-tetrahydrofuran-2-yl)methyl)-1H-pyrazol-4-yl)amino)pyrimidin-4-yl)thiazol-2-yl)phenyl)pyrrolidin-2-one] has an IC50 [1] of less than 100 nM and an IC50 [2, 3] of 100 to 500 nM.
With `CN1CC[C@@](O)(c2cccc(-c3nc(-c4ccnc(Nc5cnn(C6CCC6)c5)n4)cs3)c2)C1=O` [Example 73, (R)-3-(3-(4-(2-((1-cyclobutyl-1H-pyrazol-4-yl)amino)pyrimidin-4-yl)thiazol-2-yl)phenyl)-3-hydroxy-1-methylpyrrolidin-2-one] the IC50 [1] was less than 100 nM and the IC50 [2, 3] was 100 to 500 nM.
`COc1c(Nc2nccc(-c3csc(-c4cccc([C@]5(O)CCN(C)C5=O)c4)n3)n2)ccnc1C` [Example 74, (R)-3-hydroxy-3-(3-(4-(2-((3-methoxy-2-methylpyridin-4-yl)amino)pyrimidin-4-yl)thiazol-2-yl)phenyl)-1-methylpyrrolidin-2-one] gave an IC50 [1] of 100 to 500 nM and an IC50 [2, 3] greater than 501 nM.
